{
  "source": "paper PMC11435220",
  "about": "“Anticancer Activity of Imidazolyl Gold(I/III) Compounds in Non-Small Cell Lung Cancer Cell Lines” (Pharmaceuticals, 2024)",
  "key": {"H522": {"tested_on": "H522", "experiment": "MTT viability assay, H522", "type": "cell-based, human", "settings": "mean ± span, 48 h treatment, cell line without KRAS mutation", "experimental": "(§1) NSCLC cell lines were obtained from the Hamon Center for Therapeutic Oncology Research (UT Southwestern Medical Center). IMR-90 human lung fibroblasts were from ATCC (CC-186). All cell lines were maintained and treated in RPMI medium (Cytiva (Shanghai, China), #SH30027), supplemented with 10% heat-inactivated FBS (Millipore Sigma (Darmstadt, Germany), F0394).\n(§2) 5000–10,000 cells/0.1 mL/well were seeded in 96-well plates to achieve 70% confluence after 24 h. All drug stock solutions were prepared fresh in DMSO at a concentration of 10 mM. The day after cell plating, we added 0.1 mL of medium containing the appropriate drug dilutions. After 48 h of treatment, 10 μL of MTT solution (5 mg/mL) was added to each well. After 4 h incubation, the medium was aspirated, and the formazan salts dissolved in 200 μL DMSO/well for 10 min at 37 °C. The absorbance was read at 570 nm (OD 570 nm). Data are represented as mean ± SD of two independent experiments.\n(§3) Statistical and data analysis was performed using GraphPad Prism (v10). IC50 values were calculated using a three-parameter non-linear regression model with log(inhibitor) vs. response. For the TxrR activity statistics, the groups were compared using a two-way ANOVA followed by Dunnett’s multiple comparisons with alpha = 0.05. The correlation between IC50 values and TxrR activity was achieved using Pearson correlation with alpha = 0.05."}, "H661": {"tested_on": "H661", "experiment": "MTT viability assay, H661", "type": "cell-based, human", "settings": "mean ± span, 48 h treatment, cell line without KRAS mutation", "experimental": "as §1, §2, §3"}, "H1395": {"tested_on": "H1395", "experiment": "MTT viability assay, H1395", "type": "cell-based, human", "settings": "mean ± span, 48 h treatment, cell line without KRAS mutation", "experimental": "as §1, §2, §3"}, "H1993": {"tested_on": "H1993", "experiment": "MTT viability assay, H1993", "type": "cell-based, human", "settings": "mean ± span, 48 h treatment, cell line without KRAS mutation", "experimental": "as §1, §2, §3"}, "A549": {"tested_on": "A549", "experiment": "MTT viability assay, A549", "type": "cell-based, human", "settings": "mean ± span, 48 h treatment, cell line with KRAS mutation", "experimental": "as §1, §2, §3"}, "HCC-44": {"tested_on": "HCC-44", "experiment": "MTT viability assay, HCC-44", "type": "cell-based, human", "settings": "mean ± span, 48 h treatment, cell line with KRAS mutation", "experimental": "as §1, §2, §3"}, "H1355": {"tested_on": "H1355", "experiment": "MTT viability assay, H1355", "type": "cell-based, human", "settings": "mean ± span, 48 h treatment, cell line with KRAS mutation", "experimental": "as §1, §2, §3"}, "IMR90": {"tested_on": "IMR90", "experiment": "MTT viability assay, IMR90 non-transformed lung fibroblasts", "type": "cell-based, human", "settings": "for selectivity for the NSCLC cell lines over the lung fibroblasts: IMR90 vs NSCLC cell lines, MTT 48 h; for IC50: mean ± span, 48 h treatment, MTT, non-transformed human lung fibroblasts", "experimental": "as §1, §2, §3"}, "[1]": {"tested_on": "human NSCLC cell lines without KRAS mutations", "experiment": "MTT assay, average across NSCLC cell lines without KRAS mutations", "type": "cell-based", "settings": "average across cell lines without KRAS mutations (H522, H661, H1395, H1993), 48 h, read-out: IC50 * averaged values", "experimental": "as §1, §2, §3"}, "[2]": {"tested_on": "human NSCLC cell lines with KRAS mutations", "experiment": "MTT assay, average across NSCLC cell lines with KRAS mutations", "type": "cell-based", "settings": "48 h, read-out: IC50 * averaged values", "experimental": "as §1, §2, §3"}, "[3]": {"tested_on": "TrxR in H522 cell lysates", "experiment": "Thioredoxin reductase activity in lysates of treated H522 cells", "type": "cell-based, human", "settings": "for Mean Diff. TrxR activity vs. veh: H522 lysate, 24 h treatment at 5 μM", "experimental": "The enzymatic activity of TrxR in the A549 and H522 cell lysates was measured using the TrxR assay Kit (Abcam ab83463) following the manufacturer’s instructions. This kit is based on the TxrR-mediated reduction of the colorless DTNB into TNB2—(yellow). Briefly, cells were plated to reach 70% confluence on a 100-mm dish in one day. They were treated with 5 μM of the gold compounds or the equivalent quantity of DMSO for 24 h. Then, cells were washed in PBS 1X, detached, and lysed in 100 μL of cold TrxR assay buffer supplemented with the Proteinase Inhibitor Cocktail. 20 μg and 40 μg of total proteins were used for the A549 and the H522, respectively. The DTNB substrate was added to samples with or without TrxR inhibitor (provided with the kit) in 96-well plates. The OD412 was measured soon after the substrate addition (A1) and then after 25, 60, 90, and 110 min (An) at 25 °C using a FLUOstar Omega Microplate Reader (BGM Labtech, Chicago, IL, USA). Data analysis was performed following the manufacturer’s instructions. The OD of TNB2, generated by TrxR in every condition, is:ΔA412 nm = (AnAB − AnINH) − (AB − A1INH) where AB is the assay buffer, and INH is the inhibitor. The TrxR activity is:(2) ΔB/Tn−T1×mg of protein lysate×sample dilution factor=(nmol/min)/mg=mU/mg where ΔB is the TNB amount calculated applying ΔA412 nm to TNB standard curve (in nmol), T1 is the time of the first reading (A1AB, and A1INH) (in min), Tn is the time of the second reading (AnAB and AnINH) (in min). The residual TxrR activity (%) was calculated by normalizing the TxrR activity for each compound with the matching vehicle values at every n time point.\nas §3"}, "[4]": {"experiment": "Solution stability by UV-visible spectra over time", "type": "physicochemical", "settings": "UV-visible spectra over time; DMSO, methanol, PBS buffered solutions", "experimental": "Stability studies were led by acquiring UV−visible spectra of 100 µM DMSO or methanol solutions of compounds 1∓8 over time (Figures S19–S29 in Supplementary Materials). […] The stability of NHC-AuX3 complexes (with X = Cl, compounds 1 and 2, with X = Br, compounds 5 and 6) was affected by the nature of both the substituents on the imidazolyl ligand and of the halide, showing a small decrease of the UV bands maxima in an hour. By analyzing the spectral data of compounds 1 and 2, a percent concentration reduction of about 4–5% was estimated within an hour, grading them eligible for biological tests. The partial instability may be attributed to the formation of cationic bis-carbeneAuCl2 species (Equation (1)), with the [bis-carbeneAuX2]^+ and the respective AuX2^−; these ions were actually detected as positive and negative ions in the ESI-MS spectra (see Figures S12 and S13). […] Additionally, the (+)ESI MS spectrum of the acetonitrile solution of compound 6 is particularly rich in positive ions (Figure S16). As concerns the mono-/bis-carbene formation, it is likely initiated by the large trans effect of the carbene ligands, which induces the chemical lability on the trans halide, triggers […], the formation of bis-carbeneAu(III) species, and AuX2^− or AuX4^− anions:2[NHC-AuX3] ⇔ [[(NHC)2AuX2] [AuX2^−] + 2X(1) […]\nThe stability of the samples 1-8 in DMSO solution was assayed by UV-visible spectroscopy. Spectra were acquired using the Shimadzu UV-2700i spectrophotometer, equipped with the Shimadzu CPS-100 Peltier, at 293 K. Unless diversely specified, 100 µM DMSO solutions of the 1-8 compounds were prepared and spectra were acquired each 10 minutes for a total of 60 minutes. The spectra obtained are reported as following.\nFigure S19. UV-Visible Spectra acquired for complex 1.\nFigure S20. UV-Visible Spectra acquired for complex 2. […]"}},
  "data": [
    {"smiles": "Clc1n[c]([Au-][P+](c2ccccc2)(c2ccccc2)c2ccccc2)n(Cc2ccccc2)c1Cl", "note": "[Compound 7]", "values": [
      {"measurement": "IC50", "setting": "H522", "value": "6.5 ± 0.97", "unit": "µM"},
      {"measurement": "IC50", "setting": "H661", "value": "0.95 ± 1", "unit": "µM"},
      {"measurement": "IC50", "setting": "H1395", "value": "6.3 ± 0.98", "unit": "µM"},
      {"measurement": "IC50", "setting": "H1993", "value": "1.8 ± 0.96", "unit": "µM"},
      {"measurement": "IC50", "setting": "A549", "value": "16 ± 1.3", "unit": "µM"},
      {"measurement": "IC50", "setting": "HCC-44", "value": "9.2 ± 1.02", "unit": "µM"},
      {"measurement": "IC50", "setting": "H1355", "value": "7.8 ± 0.61", "unit": "µM"},
      {"measurement": "selectivity for the NSCLC cell lines over the lung fibroblasts", "setting": "IMR90", "value": "good selectivity"},
      {"measurement": "IC50", "setting": "IMR90", "value": "63 ± 2.5", "unit": "µM"},
      {"measurement": "IC50", "setting": "[1]", "value": 4, "unit": "µM"},
      {"measurement": "IC50", "setting": "[2]", "value": 10, "unit": "µM"},
      {"measurement": "Mean Diff. TrxR activity vs. veh", "setting": "[3]; reading at 25 min", "value": "−57.19", "unit": "%"},
      {"measurement": "Mean Diff. TrxR activity vs. veh", "setting": "[3]; reading at 60 min", "value": "−91.41", "unit": "%"},
      {"measurement": "Mean Diff. TrxR activity vs. veh", "setting": "[3]; reading at 90 min", "value": "−90.61", "unit": "%"},
      {"measurement": "Mean Diff. TrxR activity vs. veh", "setting": "[3]; reading at 110 min", "value": "−89.86", "unit": "%"},
      {"measurement": "stability in solution", "setting": "[4]", "value": "highest stability in solution"}
    ]},
    {"smiles": "Cn1cc[n+](C)[c]1[Au-2]([Cl])[P+](c1ccccc1)(c1ccccc1)c1ccccc1", "note": "[Compound 8]", "values": [
      {"measurement": "IC50", "setting": "H522", "value": "3.3 ± 0.93", "unit": "µM"},
      {"measurement": "IC50", "setting": "H661", "value": "1.1 ± 1.1", "unit": "µM"},
      {"measurement": "IC50", "setting": "H1395", "value": "5.9 ± 0.97", "unit": "µM"},
      {"measurement": "IC50", "setting": "H1993", "value": "1.8 ± 1.05", "unit": "µM"},
      {"measurement": "IC50", "setting": "A549", "value": "9.1 ± 1.2", "unit": "µM"},
      {"measurement": "IC50", "setting": "HCC-44", "value": "7.3 ± 1.05", "unit": "µM"},
      {"measurement": "IC50", "setting": "H1355", "value": "6.4 ± 0.65", "unit": "µM"},
      {"measurement": "selectivity for the NSCLC cell lines over the lung fibroblasts", "setting": "IMR90", "value": "good selectivity"},
      {"measurement": "IC50", "setting": "IMR90", "value": "87 ± 4.9", "unit": "µM"},
      {"measurement": "IC50", "setting": "[1]", "value": 3, "unit": "µM"},
      {"measurement": "IC50", "setting": "[2]", "value": 11, "unit": "µM"},
      {"measurement": "TrxR activity reduction / inhibition", "setting": "[3]; H522, 24 h treatment, stated for both cell lines", "value": "more than 80%"},
      {"measurement": "Mean Diff. TrxR activity vs. veh", "setting": "[3]; reading at 25 min", "value": "−81.92", "unit": "%"},
      {"measurement": "Mean Diff. TrxR activity vs. veh", "setting": "[3]; reading at 60 min", "value": "−82.1", "unit": "%"},
      {"measurement": "Mean Diff. TrxR activity vs. veh", "setting": "[3]; reading at 90 min", "value": "−91.89", "unit": "%"},
      {"measurement": "Mean Diff. TrxR activity vs. veh", "setting": "[3]; reading at 110 min", "value": "−88.27", "unit": "%"},
      {"measurement": "stability in solution", "setting": "[4]", "value": "highest stability in solution"}
    ]}
  ]
}
